Counter-ions that a name gives are not always drawn.
molecular target: T1, recombinant human GSK3β (Homo sapiens, UniProt P49841); assay: GSK3β Scintillation Proximity Assay (ATP competition); type: biochemical; settings: inhibition constant from ATP competition, 10 inhibitor concentrations in duplicate; ATP 1 μM; Km of ATP 20 μM
T1 construct: purchased Dundee University, UK
Description: Determination of ATP competition in Scintillation Proximity GSK3β Assay.
GSK3β Scintillation Proximity Assay.
The competition experiments were carried out in duplicate with 10 different concentrations of the inhibitors in clear-bottom microtiter plates (Wallac, Finland). A biotinylated peptide substrate, Biotin-Ala-Ala-Glu-Glu-Leu-Asp-Ser-Arg-Ala-Gly-Ser(PO3H2)-Pro-Gln-Leu (AstraZeneca, Lund), was added at a final concentration of 1 μM in an assay buffer containing 1 mU recombinant human GSK3β (Dundee University, UK), 12 mM morpholinepropanesulfonic acid (MOPS), pH 7.0, 0.3 mM EDTA, 0.01% β-mercaptorethanol, 0.004% Brij 35 (a […] detergent), 0.5% glycerol and 0.5 μg BSA/25 μl. The reaction was initiated by the addition of 0.04 μCi [γ-^33P]ATP (Amersham, UK) and unlabelled ATP at a final concentration of 1 μM and assay volume of 25 μl. After incubation for 20 minutes at room temperature, each reaction was terminated by the addition of 25 μl stop solution containing 5 mM EDTA, 50 μM ATP, 0.1% Triton X-100 and 0.25 mg streptavidin coated Scintillation Proximity Assay (SPA) beads (Amersham, UK). After 6 hours the radioactivity was determined in a liquid scintillation counter (1450 MicroBeta Trilux, Wallac). The inhibition curves were analysed by non-linear regression using GraphPad Prism, USA. The Km value of ATP for GSK30, used to calculate the inhibition constants (Ki) of the various compounds, was 20 μM.

T1 sequence (P49841 whole entry): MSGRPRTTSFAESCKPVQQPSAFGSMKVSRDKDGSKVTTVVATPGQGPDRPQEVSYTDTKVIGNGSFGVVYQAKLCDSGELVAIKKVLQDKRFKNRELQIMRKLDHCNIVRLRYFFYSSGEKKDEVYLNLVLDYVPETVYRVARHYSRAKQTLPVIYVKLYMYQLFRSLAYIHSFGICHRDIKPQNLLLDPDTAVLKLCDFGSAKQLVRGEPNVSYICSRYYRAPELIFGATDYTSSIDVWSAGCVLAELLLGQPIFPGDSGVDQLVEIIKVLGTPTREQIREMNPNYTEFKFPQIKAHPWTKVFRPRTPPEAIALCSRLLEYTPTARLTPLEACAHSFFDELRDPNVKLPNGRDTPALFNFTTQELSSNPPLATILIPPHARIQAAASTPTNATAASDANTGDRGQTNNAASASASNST

SMILES | Ki [nM]
COc1cc(Nc2ncc(F)c(-c3cnc(C)n3C)n2)cc(C(F)(F)F)c1 [Example 1, 4-(1,2-Dimethyl-1H-imidazol-5-yl)-5-fluoro-N-[3-methoxy-5-(trifluoromethyl)phenyl]pyrimidin-2-amine] | 10
Cc1ncc(-c2nc(Nc3ccc(C(=O)N4CCN(C)CC4)cc3)ncc2F)n1C1CCCCC1 [Example 17, 4-(1-Cyclohexyl-2-methyl-1H-imidazol-5-yl)-5-fluoro-N-{4-[(4-methylpiperazin-1-yl)carbonyl]phenyl}pyrimidin-2-amine hydrochloride] | 14
Cc1ncc(-c2nc(Nc3cccc(S(C)(=O)=O)c3)ncc2F)n1C1CCOCC1 [Example 22, 5-Fluoro-N-[3-(methylsulfonyl)phenyl]-4-[2-methyl-1-(tetrahydro-2H-pyran-4-yl)-1H-imidazol-5-yl]pyrimidin-2-amine hydrochloride] | 22
Cc1ncc(-c2nc(Nc3ccc(CN4CCN(C)CC4)cc3)ncc2F)n1C [Example 29, 4-(1,2-Dimethyl-1H-imidazol-5-yl)-5-fluoro-N-{4-[(4-methylpiperazin-1-yl)methyl]phenyl}pyrimidin-2-amine hydrochloride] | 126

Reference: patent US20090105252A1, “Pyrimidine Derivatives and Their Use in Therapy as well as the Use of Pyrimidine Derivatives in the Manufacture of a Medicament for Prevention and/or Treatment of Alzheimer's Disease” (AstraZeneca AB, priority 2005, published 2009)
